Laboratory results: ChEMBL document CHEMBL4507318, “Data for DCP probe BAY-985” (2021)

Key:
[1] = test system: Tyrosine-protein kinase ABL1 (Homo sapiens), P00519 [F317I]
[2] = test system: Tyrosine-protein kinase ABL1 (Homo sapiens), P00519 [M351T]
[3] = target: 5'-AMP-activated protein kinase catalytic subunit alpha-2 (Homo sapiens) (UniProt P54646)
[4] = target: Ankyrin repeat and protein kinase domain-containing protein 1 (Homo sapiens) (UniProt Q8NFD2)
[5] = target: Cytoplasmic tyrosine-protein kinase BMX (Homo sapiens) (UniProt P51813)
[6] = target: Serine/threonine-protein kinase B-raf (Homo sapiens) (UniProt P15056)
[7] = target: Calcium/calmodulin-dependent protein kinase type 1G (Homo sapiens) (UniProt Q96NX5)
[8] = target: Serine/threonine-protein kinase Chk2 (Homo sapiens) (UniProt O96017)
[9] = target: Casein kinase II subunit alpha' (Homo sapiens) (UniProt P19784)
[10] = target: Serine/threonine-protein kinase 17B (Homo sapiens) (UniProt O94768)
[11] = target: Dual specificity tyrosine-phosphorylation-regulated kinase 2 (Homo sapiens) (UniProt Q92630)
Chain of Dual specificity tyrosine-phosphorylation-regulated kinase 2 (Homo sapiens) (Q92630 whole entry): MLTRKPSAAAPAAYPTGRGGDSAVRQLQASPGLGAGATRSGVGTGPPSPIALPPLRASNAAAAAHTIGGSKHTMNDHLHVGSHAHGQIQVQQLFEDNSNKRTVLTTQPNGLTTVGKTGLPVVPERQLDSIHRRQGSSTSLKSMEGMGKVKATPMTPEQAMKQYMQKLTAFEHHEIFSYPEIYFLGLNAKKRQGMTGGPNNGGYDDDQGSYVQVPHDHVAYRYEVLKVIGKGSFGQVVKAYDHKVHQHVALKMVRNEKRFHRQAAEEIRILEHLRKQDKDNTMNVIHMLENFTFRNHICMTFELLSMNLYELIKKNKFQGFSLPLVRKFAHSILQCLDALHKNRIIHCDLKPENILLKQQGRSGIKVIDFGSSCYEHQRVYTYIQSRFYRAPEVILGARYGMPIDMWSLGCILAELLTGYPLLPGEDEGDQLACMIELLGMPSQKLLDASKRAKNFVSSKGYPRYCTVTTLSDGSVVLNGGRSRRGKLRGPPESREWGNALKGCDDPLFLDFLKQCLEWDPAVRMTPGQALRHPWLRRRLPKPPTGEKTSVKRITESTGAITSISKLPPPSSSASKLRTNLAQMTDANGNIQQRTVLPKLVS

[12] = test system: Epidermal growth factor receptor (Homo sapiens), P00533 [UNDEFINED MUTATION]
[13] = test system: Epidermal growth factor receptor (Homo sapiens), P00533 [L858R,T790M]
[14] = target: Ephrin type-A receptor 5 (Homo sapiens) (UniProt P54756)
[15] = target: Mitogen-activated protein kinase 6 (Homo sapiens) (UniProt Q16659)
[16] = test system: Receptor-type tyrosine-protein kinase FLT3 (Homo sapiens), P36888 [UNDEFINED MUTATION]
[17] = test system: Receptor-type tyrosine-protein kinase FLT3 (Homo sapiens), P36888 [R834Q]
[18] = test system: eIF-2-alpha kinase GCN2 (Homo sapiens), Q9P2K8 [S808G]
[19] = target: Tyrosine-protein kinase JAK1 (Homo sapiens) (UniProt P23458)
[20] = test system: Mast/stem cell growth factor receptor Kit (Homo sapiens), P10721 [V559D]
Chain of Mast/stem cell growth factor receptor Kit (Homo sapiens), P10721 [V559D] (P10721 whole entry V559D): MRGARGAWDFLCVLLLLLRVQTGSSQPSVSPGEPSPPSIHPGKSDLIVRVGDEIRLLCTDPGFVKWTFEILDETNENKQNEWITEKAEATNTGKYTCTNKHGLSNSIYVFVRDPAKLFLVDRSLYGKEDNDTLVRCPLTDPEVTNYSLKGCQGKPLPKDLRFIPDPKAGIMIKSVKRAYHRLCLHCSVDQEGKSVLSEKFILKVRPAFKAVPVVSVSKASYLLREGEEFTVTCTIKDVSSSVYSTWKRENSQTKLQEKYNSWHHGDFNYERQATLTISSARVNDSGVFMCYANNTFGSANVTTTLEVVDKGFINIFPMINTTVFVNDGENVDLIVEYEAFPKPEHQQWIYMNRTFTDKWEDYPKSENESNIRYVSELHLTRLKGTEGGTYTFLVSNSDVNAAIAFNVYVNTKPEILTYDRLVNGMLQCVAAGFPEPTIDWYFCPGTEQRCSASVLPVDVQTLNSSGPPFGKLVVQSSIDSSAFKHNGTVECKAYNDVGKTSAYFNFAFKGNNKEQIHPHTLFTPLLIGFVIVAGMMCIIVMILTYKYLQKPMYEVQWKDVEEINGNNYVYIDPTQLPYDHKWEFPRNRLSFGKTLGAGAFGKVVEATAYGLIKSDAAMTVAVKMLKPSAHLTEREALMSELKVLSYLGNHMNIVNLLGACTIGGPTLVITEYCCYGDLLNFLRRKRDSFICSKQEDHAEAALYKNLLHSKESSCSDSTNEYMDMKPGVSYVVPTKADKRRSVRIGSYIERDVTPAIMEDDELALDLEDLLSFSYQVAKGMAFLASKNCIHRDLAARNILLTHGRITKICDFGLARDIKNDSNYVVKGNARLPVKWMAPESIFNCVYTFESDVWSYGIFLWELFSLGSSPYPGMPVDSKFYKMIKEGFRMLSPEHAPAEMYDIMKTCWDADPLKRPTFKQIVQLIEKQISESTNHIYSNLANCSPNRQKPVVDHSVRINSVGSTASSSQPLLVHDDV

[21] = test system: Leucine-rich repeat serine/threonine-protein kinase 2 (Homo sapiens), Q5S007 [G2019S]
[22] = target: Tyrosine-protein kinase Lyn (Homo sapiens) (UniProt P07948)
[23] = target: MAP kinase-activated protein kinase 5 (Homo sapiens) (UniProt Q8IW41)
[24] = target: Serine/threonine-protein kinase MARK2 (Homo sapiens) (UniProt Q7KZI7)
Chain of Serine/threonine-protein kinase MARK2 (Homo sapiens) (Q7KZI7 whole entry): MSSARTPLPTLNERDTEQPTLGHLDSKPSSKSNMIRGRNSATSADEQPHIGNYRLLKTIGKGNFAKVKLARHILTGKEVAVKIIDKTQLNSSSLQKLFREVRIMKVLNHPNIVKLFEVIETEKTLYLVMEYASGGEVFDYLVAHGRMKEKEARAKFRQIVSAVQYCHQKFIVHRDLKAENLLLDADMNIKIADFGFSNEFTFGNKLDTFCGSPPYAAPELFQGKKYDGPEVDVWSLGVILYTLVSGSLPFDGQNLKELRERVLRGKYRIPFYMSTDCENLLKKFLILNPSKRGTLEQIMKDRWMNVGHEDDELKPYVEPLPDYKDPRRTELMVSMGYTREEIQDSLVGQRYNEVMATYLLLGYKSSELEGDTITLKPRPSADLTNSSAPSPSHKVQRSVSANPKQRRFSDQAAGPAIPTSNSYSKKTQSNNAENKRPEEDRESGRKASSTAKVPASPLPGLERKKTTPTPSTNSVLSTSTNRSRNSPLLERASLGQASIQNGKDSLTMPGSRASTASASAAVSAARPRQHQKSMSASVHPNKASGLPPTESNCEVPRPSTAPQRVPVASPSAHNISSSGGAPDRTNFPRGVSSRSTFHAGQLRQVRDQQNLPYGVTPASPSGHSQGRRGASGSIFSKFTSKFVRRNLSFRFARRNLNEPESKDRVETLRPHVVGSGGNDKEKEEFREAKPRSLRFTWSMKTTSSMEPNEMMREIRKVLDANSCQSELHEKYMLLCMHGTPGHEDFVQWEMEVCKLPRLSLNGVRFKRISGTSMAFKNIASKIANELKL

[25] = target: Mitogen-activated protein kinase kinase kinase 11 (Homo sapiens) (UniProt Q16584)
[26] = target: Serine/threonine-protein kinase MRCK alpha (Homo sapiens) (UniProt Q5VT25)
[27] = target: Mitogen-activated protein kinase 11 (Homo sapiens) (UniProt Q15759)
Chain of Mitogen-activated protein kinase 11 (Homo sapiens) (Q15759 whole entry): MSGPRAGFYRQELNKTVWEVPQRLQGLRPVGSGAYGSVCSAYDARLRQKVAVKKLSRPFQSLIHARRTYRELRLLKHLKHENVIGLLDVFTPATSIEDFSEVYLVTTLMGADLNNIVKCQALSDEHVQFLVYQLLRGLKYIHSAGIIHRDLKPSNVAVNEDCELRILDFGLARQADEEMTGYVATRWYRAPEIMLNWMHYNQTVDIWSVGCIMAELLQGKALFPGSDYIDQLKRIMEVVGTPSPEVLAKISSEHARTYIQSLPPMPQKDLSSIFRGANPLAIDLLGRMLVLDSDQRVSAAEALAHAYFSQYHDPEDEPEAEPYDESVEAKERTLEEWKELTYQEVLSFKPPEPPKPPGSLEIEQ

[28] = target: Serine/threonine-protein kinase PAK 1 (Homo sapiens) (UniProt Q13153)
[29] = target: Cyclin-dependent kinase 18 (Homo sapiens) (UniProt Q07002)
[30] = target: Calcium-dependent protein kinase 1 (Plasmodium falciparum) (UniProt P62344)
Chain of Calcium-dependent protein kinase 1 (Plasmodium falciparum) (P62344 2-524 limits assumed): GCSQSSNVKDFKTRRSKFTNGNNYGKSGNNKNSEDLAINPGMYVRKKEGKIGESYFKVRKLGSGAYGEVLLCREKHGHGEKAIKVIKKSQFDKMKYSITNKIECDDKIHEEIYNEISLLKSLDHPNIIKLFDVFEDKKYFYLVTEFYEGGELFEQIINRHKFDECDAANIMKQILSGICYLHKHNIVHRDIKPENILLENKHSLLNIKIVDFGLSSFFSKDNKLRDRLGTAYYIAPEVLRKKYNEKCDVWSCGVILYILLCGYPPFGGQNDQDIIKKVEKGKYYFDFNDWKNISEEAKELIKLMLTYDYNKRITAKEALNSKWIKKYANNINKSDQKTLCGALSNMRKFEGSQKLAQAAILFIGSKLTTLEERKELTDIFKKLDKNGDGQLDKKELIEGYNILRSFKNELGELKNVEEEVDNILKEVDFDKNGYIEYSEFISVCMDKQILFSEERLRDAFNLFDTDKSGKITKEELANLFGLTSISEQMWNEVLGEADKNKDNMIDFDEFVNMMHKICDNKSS

[31] = test system: Phosphatidylinositol 4,5-bisphosphate 3-kinase catalytic subunit alpha isoform (Homo sapiens), P42336 [H1047L]
[32] = target: Phosphatidylinositol 4-phosphate 5-kinase type-1 alpha (Homo sapiens) (UniProt Q99755)
[33] = target: Serine/threonine-protein kinase SIK3 (Homo sapiens) (UniProt Q9Y2K2)
[34] = test system: Proto-oncogene tyrosine-protein kinase receptor Ret (Homo sapiens), P07949 [M918T]
[35] = target: Ribosomal protein S6 kinase alpha-6 (Homo sapiens) (UniProt Q9UK32)
[36] = target: Serine/threonine-protein kinase SIK2 (Homo sapiens) (UniProt Q9H0K1)
Chain of Serine/threonine-protein kinase SIK2 (Homo sapiens) (Q9H0K1 whole entry, looked up): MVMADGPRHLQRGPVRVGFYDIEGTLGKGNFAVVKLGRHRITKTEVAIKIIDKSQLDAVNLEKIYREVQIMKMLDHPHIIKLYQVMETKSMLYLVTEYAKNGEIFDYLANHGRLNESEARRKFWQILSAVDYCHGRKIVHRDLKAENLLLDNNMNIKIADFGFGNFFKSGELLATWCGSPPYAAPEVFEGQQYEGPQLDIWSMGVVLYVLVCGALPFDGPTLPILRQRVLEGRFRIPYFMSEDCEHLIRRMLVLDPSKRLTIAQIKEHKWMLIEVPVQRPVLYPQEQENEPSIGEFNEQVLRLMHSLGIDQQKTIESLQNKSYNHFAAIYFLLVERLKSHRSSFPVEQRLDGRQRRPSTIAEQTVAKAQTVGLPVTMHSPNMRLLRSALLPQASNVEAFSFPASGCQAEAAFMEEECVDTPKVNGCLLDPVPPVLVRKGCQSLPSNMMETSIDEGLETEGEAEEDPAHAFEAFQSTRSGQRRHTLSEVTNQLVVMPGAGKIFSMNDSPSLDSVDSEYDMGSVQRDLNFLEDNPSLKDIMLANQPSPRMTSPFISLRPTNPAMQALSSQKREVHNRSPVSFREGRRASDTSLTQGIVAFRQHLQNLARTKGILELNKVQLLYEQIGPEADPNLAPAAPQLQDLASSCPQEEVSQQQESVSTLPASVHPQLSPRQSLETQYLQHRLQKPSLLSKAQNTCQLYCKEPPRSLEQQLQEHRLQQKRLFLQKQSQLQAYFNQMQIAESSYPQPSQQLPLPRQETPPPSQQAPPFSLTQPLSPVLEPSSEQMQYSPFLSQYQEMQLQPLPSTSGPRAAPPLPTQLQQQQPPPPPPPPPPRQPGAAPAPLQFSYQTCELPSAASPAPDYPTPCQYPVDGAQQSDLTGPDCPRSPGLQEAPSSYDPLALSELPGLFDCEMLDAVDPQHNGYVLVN

[37] = target: STE20-like serine/threonine-protein kinase (Homo sapiens) (UniProt Q9H2G2)
[38] = target: Serine/threonine-protein kinase 35 (Homo sapiens) (UniProt Q8TDR2)
[39] = target: Serine/threonine-protein kinase TAO3 (Homo sapiens) (UniProt Q9H2K8)
Chain of Serine/threonine-protein kinase TAO3 (Homo sapiens) (Q9H2K8 whole entry): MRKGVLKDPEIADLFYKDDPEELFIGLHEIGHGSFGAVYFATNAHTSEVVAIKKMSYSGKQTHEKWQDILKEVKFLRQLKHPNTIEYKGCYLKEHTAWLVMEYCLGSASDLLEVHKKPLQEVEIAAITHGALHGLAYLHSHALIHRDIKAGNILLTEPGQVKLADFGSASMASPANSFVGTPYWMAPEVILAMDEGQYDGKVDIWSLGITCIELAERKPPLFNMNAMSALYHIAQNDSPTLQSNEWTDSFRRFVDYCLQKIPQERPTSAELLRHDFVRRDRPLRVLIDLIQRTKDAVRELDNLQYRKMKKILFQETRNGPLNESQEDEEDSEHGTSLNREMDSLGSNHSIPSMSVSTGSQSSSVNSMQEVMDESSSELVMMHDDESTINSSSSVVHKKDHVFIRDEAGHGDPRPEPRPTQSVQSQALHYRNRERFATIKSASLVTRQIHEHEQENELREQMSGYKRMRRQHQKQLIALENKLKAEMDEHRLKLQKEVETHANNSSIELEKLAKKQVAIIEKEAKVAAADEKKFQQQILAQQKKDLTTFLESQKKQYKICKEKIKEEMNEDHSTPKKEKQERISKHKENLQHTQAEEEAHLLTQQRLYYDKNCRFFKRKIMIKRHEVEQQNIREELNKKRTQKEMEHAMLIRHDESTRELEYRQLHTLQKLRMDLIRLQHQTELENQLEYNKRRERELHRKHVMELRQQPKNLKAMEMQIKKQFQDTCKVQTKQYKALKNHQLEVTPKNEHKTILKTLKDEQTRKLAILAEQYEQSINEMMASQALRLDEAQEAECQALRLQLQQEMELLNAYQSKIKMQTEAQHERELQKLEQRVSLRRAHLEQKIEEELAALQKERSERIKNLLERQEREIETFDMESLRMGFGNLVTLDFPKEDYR

[40] = target: Non-receptor tyrosine-protein kinase TNK1 (Homo sapiens) (UniProt Q13470)
[41] = target: Wee1-like protein kinase 2 (Homo sapiens) (UniProt P0C1S8)
[42] = target: Serine/threonine-protein kinase WNK1 (Homo sapiens) (UniProt Q9H4A3)
[43] = target: Alpha-2A adrenergic receptor (Homo sapiens) (UniProt P08913); settings: Compound concentration 10.0 uM
[44] = target: Muscarinic acetylcholine receptor M3 (Homo sapiens) (UniProt P20309); settings: Compound concentration 10.0 uM
[45] = Compound concentration 1000.0 nM
[46] = Compound concentration 100.0 nM

With `CN(C)c1ncnc(-c2ccc3nc(Nc4cc(CN5CCN(C(=O)CC(F)(F)F)CC5)ccn4)[nH]c3c2)c1Cl` [BAY-440] the residual activity [1, 45] was 71%, the residual activity [2, 45] was 43% and the residual activity [3, 45] was 100%. The residual activity [4, 45] was 57%, the residual activity [5, 45] was 100% and the residual activity [6, 45] was 83%. For the same compound, the residual activity [7, 45] was 100%, the residual activity [8, 45] was 100% and the residual activity [9, 45] was 78%. It also gave a residual activity [10, 45] of 52%, a residual activity [11, 45] of 81% and a residual activity [12, 45] of 100%. It also gave a residual activity [13, 45] of 82%, a residual activity [14, 45] of 100% and a residual activity [15, 45] of 100%. The residual activity [16, 45] was 35%, the residual activity [17, 45] was 77% and the residual activity [18, 45] was 100%. It also gave a residual activity [19, 45] of 68%, a residual activity [20, 45] of 75% and a residual activity [21, 45] of 69%. It also gave a residual activity [22, 45] of 94%, a residual activity [23, 45] of 96% and a residual activity [24, 45] of 68%. The residual activity [25, 45] was 100%, the residual activity [26, 45] was 100% and the residual activity [27, 45] was 97%. For the same compound, the residual activity [28, 45] was 100%, the residual activity [29, 45] was 100% and the residual activity [30, 45] was 100%. It also gave a residual activity [31, 45] of 61%, a residual activity [32, 45] of 96% and a residual activity [33, 45] of 83%. For the same compound, the residual activity [34, 45] was 100%, the residual activity [35, 45] was 81% and the residual activity [36, 45] was 59%. It also gave a residual activity [37, 45] of 100%, a residual activity [38, 45] of 83% and a residual activity [39, 45] of 33%. The residual activity [40, 45] was 96%, the residual activity [41, 45] was 100% and the residual activity [42, 45] was 86%. The inhibition [43] was 15.7% and the inhibition [44] was 23.9%.
With `C[C@H](c1ccnc(Nc2nc3ccc(-c4cc(N(C)C)ncn4)cc3[nH]2)c1)N1CCN(C(=O)CC(F)(F)F)CC1` [BAY-985] the residual activity [1, 46] was 100%, the residual activity [2, 46] was 100% and the residual activity [3, 46] was 100%. It also gave a residual activity [4, 46] of 99%, a residual activity [5, 46] of 100% and a residual activity [6, 46] of 100%. The residual activity [7, 46] was 76%, the residual activity [8, 46] was 84% and the residual activity [9, 46] was 100%. It also gave a residual activity [10, 46] of 100%, a residual activity [11, 46] of 87% and a residual activity [12, 46] of 89%. For the same compound, the residual activity [13, 46] was 100%, the residual activity [14, 46] was 81% and the residual activity [15, 46] was 86%. For the same compound, the residual activity [16, 46] was 42%, the residual activity [17, 46] was 100% and the residual activity [18, 46] was 58%. It also gave a residual activity [19, 46] of 100%, a residual activity [20, 46] of 99% and a residual activity [21, 46] of 100%. The residual activity [22, 46] was 97%, the residual activity [23, 46] was 86% and the residual activity [24, 46] was 100%. It also gave a residual activity [25, 46] of 92%, a residual activity [26, 46] of 99% and a residual activity [27, 46] of 89%. For the same compound, the residual activity [28, 46] was 77%, the residual activity [29, 46] was 89% and the residual activity [30, 46] was 100%. The residual activity [31, 46] was 100%, the residual activity [32, 46] was 100% and the residual activity [33, 46] was 100%. The residual activity [34, 46] was 86%, the residual activity [35, 46] was 56% and the residual activity [36, 46] was 79%. For the same compound, the residual activity [37, 46] was 99%, the residual activity [38, 46] was 100% and the residual activity [39, 46] was 41%. For the same compound, the residual activity [40, 46] was 100%, the residual activity [41, 46] was 98% and the residual activity [42, 46] was 100%. It also gave an inhibition [43] of 24.2% and an inhibition [44] of -8.4%.
